Test results: ChEMBL document CHEMBL3526112, “Brain uptake of the drug of abuse γ-hydroxybutyric acid in rats” (Drug Metab Dispos, 2012); call rule not given here

Key:
[1] = Drug uptake in human hCMEC/D3 cells at pH 7.4 up to 10 mins by Michaelis-Menten analysis; type: ADME, cell-based
Plasma [2] = test: AUC in Sprague-Dawley rat plasma at 800 mg/kg, iv; type: ADME, organism-based; design: dose 800 mg/kg, route intravenous; conditions: in vivo
Plasma [3] = test: Cmax in Sprague-Dawley rat plasma at 800 mg/kg, iv after 30 to 180 mins; type: ADME, organism-based; design: dose 800 mg/kg, route intravenous; conditions: in vivo
Plasma [4] = test: AUC in Sprague-Dawley rat plasma at 400 mg/kg, iv; type: ADME, organism-based; design: dose 400 mg/kg, route intravenous; conditions: in vivo
[5] = Ratio of extracellular fluid of brain AUC to plasma AUC in Sprague-Dawley rat at 600 mg/kg, iv; type: ADME, organism-based; design: dose 600 mg/kg, route intravenous; conditions: read-out: Ratio AUC
[6] = Tmax in Sprague-Dawley rat plasma at 600 mg/kg, iv; type: ADME, organism-based; design: dose 600 mg/kg, route intravenous
[7] = Tmax in Sprague-Dawley rat extracellular fluid of brain at 400 mg/kg, iv; type: ADME, organism-based; design: dose 400 mg/kg, route intravenous
[8] = Drug uptake in human hCMEC/D3 cells at 58 nM at pH 7.4 after 15 to 30 seconds by liquid scintillation counting; type: ADME, cell-based; conditions: hcmec/d3, pH 7.4, 0.058 µM
Rattus norvegicus [9] = test: Increase of sleep time in iv dosed Sprague-Dawley rat; type: functional, organism-based
[10] = Renal clearance in Sprague-Dawley rat at 800 mg/kg, iv; type: ADME, organism-based, Kidney; design: dose 800 mg/kg, route intravenous; conditions: in vivo
[11] = Renal clearance in Sprague-Dawley rat at 400 mg/kg, iv; type: ADME, organism-based, Kidney; design: dose 400 mg/kg, route intravenous; conditions: in vivo
[12] = Ratio of extracellular fluid of brain AUC to plasma AUC in Sprague-Dawley rat at 800 mg/kg, iv; type: ADME, organism-based; design: dose 800 mg/kg, route intravenous; conditions: read-out: Ratio AUC
[13] = Tmax in Sprague-Dawley rat extracellular fluid of brain at 800 mg/kg, iv; type: ADME, organism-based; design: dose 800 mg/kg, route intravenous
Rattus norvegicus [14] = test: Increase of sleep time in Sprague-Dawley rat at 800 mg/kg, iv; type: functional
Plasma [15] = test: AUC in Sprague-Dawley rat plasma at 600 mg/kg, iv; type: ADME, organism-based; design: dose 600 mg/kg, route intravenous; conditions: in vivo
[16] = Dissociation constant, pKa of the compound; type: physicochemical
[17] = Tmax in Sprague-Dawley rat plasma at 800 mg/kg, iv; type: ADME, organism-based; design: dose 800 mg/kg, route intravenous
Rattus norvegicus [18] = test: Increase of sleep time in Sprague-Dawley rat at 600 mg/kg, iv; type: functional
Brain [19] = test: AUC in Sprague-Dawley rat extracellular fluid of brain at 600 mg/kg, iv; type: ADME, organism-based; design: dose 600 mg/kg, route intravenous; conditions: in vivo
[20] = Drug uptake in rat RBE4 cells at pH 7.4 up to 10 mins by Michaelis-Menten analysis; type: ADME, cell-based
Brain [21] = test: AUC in Sprague-Dawley rat extracellular fluid of brain at 800 mg/kg, iv; type: ADME, organism-based; design: dose 800 mg/kg, route intravenous; conditions: in vivo
[22] = Drug uptake in rat RBE4 cells at 58 nM at pH 7.4 after 15 to 30 seconds by liquid scintillation counting; type: ADME, cell-based; conditions: rbe4, pH 7.4, 0.058 µM
Brain [23] = test: AUC in Sprague-Dawley rat extracellular fluid of brain at 400 mg/kg, iv; type: ADME, organism-based; design: dose 400 mg/kg, route intravenous; conditions: in vivo
[24] = Cmax in Sprague-Dawley rat extracellular fluid of brain at 600 mg/kg, iv; type: ADME, organism-based; design: dose 600 mg/kg, route intravenous; conditions: in vivo
Rattus norvegicus [25] = test: Increase of sleep time in Sprague-Dawley rat at 400 mg/kg, iv; type: functional
[26] = Ratio of extracellular fluid of brain AUC to plasma AUC in Sprague-Dawley rat at 400 mg/kg, iv; type: ADME, organism-based; design: dose 400 mg/kg, route intravenous; conditions: read-out: Ratio AUC
[27] = Renal clearance in Sprague-Dawley rat at 600 mg/kg, iv; type: ADME, organism-based, Kidney; design: dose 600 mg/kg, route intravenous; conditions: in vivo
[28] = Drug uptake in rat RBE4 cells at 10 mM at pH 6.5 up to 10 mins by Michaelis-Menten analysis relative to at pH 7.4; type: ADME, cell-based; conditions: rbe4, pH 6.5, 10 min, 10000 µM
[29] = Cmax in Sprague-Dawley rat extracellular fluid of brain at 400 mg/kg, iv; type: ADME, organism-based; design: dose 400 mg/kg, route intravenous; conditions: in vivo
[30] = Drug uptake in human hCMEC/D3 cells at 10 mM at pH 6.5 up to 10 mins by Michaelis-Menten analysis relative to at pH 7.4; type: ADME, cell-based; conditions: hcmec/d3, pH 6.5, 10 min, 10000 µM
[31] = Tmax in Sprague-Dawley rat extracellular fluid of brain at 600 mg/kg, iv; type: ADME, organism-based; design: dose 600 mg/kg, route intravenous
Plasma [32] = test: Cmax in Sprague-Dawley rat plasma at 600 mg/kg, iv after 30 to 180 mins; type: ADME, organism-based; design: dose 600 mg/kg, route intravenous; conditions: in vivo
Plasma [33] = test: Cmax in Sprague-Dawley rat plasma at 400 mg/kg, iv; type: ADME, organism-based; design: dose 400 mg/kg, route intravenous; conditions: in vivo
[34] = Cmax in Sprague-Dawley rat extracellular fluid of brain at 800 mg/kg, iv; type: ADME, organism-based; design: dose 800 mg/kg, route intravenous; conditions: in vivo
[35] = Tmax in Sprague-Dawley rat plasma at 400 mg/kg, iv; type: ADME, organism-based; design: dose 400 mg/kg, route intravenous
Plasma [36] = test: Cmax in Sprague-Dawley rat plasma at 400 mg/kg, iv after 30 to 180 mins; type: ADME, organism-based; design: dose 400 mg/kg, route intravenous; conditions: in vivo
[37] = Drug recovery in Sprague-Dawley rat brain frontal cortex at 400 to 800 mg/kg, iv by microdialysis; type: ADME, organism-based; design: dose 400-800 mg/kg, route intravenous; conditions: in vivo

SMILES: O=C([O-])CCCO.[Na+] [SODIUM OXYBATE]
- Km at 10 min ([1]; hCMEC/D3 cells, pH 7.4): 18.1 mM
- Vmax ([1]; hcmec/d3, pH 7.4, 10 min): 248 pmol/mg/min
- AUC (Plasma [2]): 145 mg·min/mL
- Cmax (Plasma [3]): 3400 µM
- AUC (Plasma [4]): 66 mg·min/mL
- Kp [5]: 0.07
- Tmax [6]: 5 min
- Tmax [7]: 50 min
- Drug uptake [8]: Active
- Activity (Rattus norvegicus [9]): Dose-dependent effect
- CL renal [10]: 2.18 mL/min/kg
- CL renal [11]: 1.55 mL/min/kg
- Kp [12]: 0.07
- Tmax [13]: 50 min
- Time (Rattus norvegicus [14]): 171 min
- AUC (Plasma [15]): 124 mg·min/mL
- pKa [16]: 4.72
- Tmax [17]: 5 min
- Time (Rattus norvegicus [18]): 138 min
- AUC (Brain [19]): 8.7 mg·min/mL
- Km at 10 min ([20]; RBE4 cells, pH 7.4): 23.3 mM
- Vmax ([20]; rbe4, pH 7.4, 10 min): 258 pmol/mg/min
- AUC (Brain [21]): 11.2 mg·min/mL
- Drug uptake [22]: Active
- AUC (Brain [23]): 4.9 mg·min/mL
- Cmax [24]: 550 µM
- Time (Rattus norvegicus [25]): 90.4 min
- Kp [26]: 0.079
- CL renal [27]: 1.41 mL/min/kg
- Drug uptake [28]: 126%
- Cmax [29]: 390 µM
- Drug uptake [30]: 126%
- Tmax [31]: 50 min
- Cmax (Plasma [32]): 2400 µM
- Cmax (Plasma [33]): 8400 µM
- Cmax [34]: 660 µM
- Tmax [35]: 5 min
- Cmax (Plasma [36]): 600 µM
- Drug recovery [37]: 32.5%
